Measured values: article PMC2223489, “Influence of single and multiple doses of amifostine on the efficacy and the pharmacokinetics of carboplatin in mice” (British Journal of Cancer, 1997)

Tests used:
[1] = test system: human ovarian cancer xenograft OVCAR-3; assay: Anti-tumour activity in s.c. OVCAR-3 xenografts in nude mice; type: in vivo; conditions: for Growth inhibition (%) (Day): weekly x 2; for Anti-tumour activity (in words): OVCAR-3, carboplatin at the MTD of 60 mg kg-1, amifostine given three times
Experimental: (§1) British Joumal of Cancer (1997) 75(10), 1439-1446 ? […] The present study was carried out in well-established human ovarian cancer xenografts OVCAR-3, A2780 and FMa grown subcutaneously in the nude mouse. […] Its anti-tumour activity is assumed to result from the formation of platinum (Pt)-DNA adducts. The clinical use of carboplatin is limited by myelosuppression at a dose in the steep part of the dose-response curve. Therefore, much effort has been put into reducing the toxic side-effects to allow the administration of higher doses of carboplatin. Amifostine [Ethyol, WR-2721, S-2-(3-aminopropylamino)- ethylphosphorothioic acid], initially developed as a radioprotector, is approved for use as a protector against chemotherapy-induced toxicities in the USA and Europe (van der Vijgh and Peters, 1994). […] Such an approach is incorporated into clinical trials in which amifostine is given three times, just before and 2 and 4 h after carboplatin (Betticher et al, 1995; Vermorken et al, 1995). To date, clinical data are available for only a small number of patients. The Amifostine H2N - (CH2)3 - NH - (CH2)2 - S - P03H2 41 alkaline phosphatase WR-1 065 H2N - (CH2)3 - NH - (CH2)2 - S - H 4, oxidation Disulphides H2N - (CH2)3 - NH - (CH2)2 - S - S - R Figure 1 Structural formulas of amifostine, its active metabolite WR-1 065 and the disulphides [with WR-1 065 itself or with endogenous thiols (RSH)] […] However, the influence of multiple doses of amifostine on the anti-tumour activity of carboplatin was not studied. In the present experiments we investigated the influence of multiple doses of amifostine on the efficacy of carboplatin in tumour-bearing nude mice. We also investigated the influence of one and three doses of amifostine on the pharmacokinetics of carboplatin and the formation of Pt-DNA adducts in order to inter- pret the efficacy of carboplatin in the presence of amifostine. Furthermore, we determined the influence of a single dose and multiple doses of amifostine on the body temperature in nude mice.

[2] = test system: human ovarian cancer xenograft A2780; assay: Anti-tumour activity in s.c. A2780 xenografts in nude mice; type: in vivo; conditions: for Growth inhibition (%) (Day): Table 1, carboplatin 60 mg kg-1 i.v. and/or amifostine 3 x 200 mg kg-1 i.p., weekly x 2; for Anti-tumour activity (in words): A2780, carboplatin at the MTD of 60 mg kg-1, amifostine given three times
Experimental: as §1

[3] = test system: human ovarian cancer xenograft FMa; assay: Anti-tumour activity in s.c. FMa xenografts in nude mice; type: in vivo; conditions: for Anti-tumour activity (in words): carboplatin at the MTD of 60 mg kg-1, amifostine given three times; for Growth inhibition (%) (Day): weekly x 2
Experimental: as §1

[4] = Toxicity (weight loss, toxic deaths) in xenograft-bearing nude mice; type: in vivo, female athymic nude mice; conditions: weekly x 2
Experimental: as §1

[5] = Pharmacokinetics of total platinum in OVCAR-3-bearing nude mice (flameless AAS); type: in vivo; conditions: 0.5-24 h, carboplatin 60 mg kg-1 i.v. alone or + single dose amifostine 200 mg kg-1 i.p.
Experimental: as §1

DNA = assay: Pt-DNA adduct levels in tissues of OVCAR-3-bearing nude mice (competitive ELISA); type: in vivo; conditions: carboplatin 60 mg kg-1 alone or plus one dose of amifostine
Experimental: as §1

[6] = Body temperature (intrarectal) in non-tumour-bearing nude mice; type: in vivo; conditions: carboplatin 60 mg kg-1 alone; in the 24 h following injection
Experimental: British Joumal of Cancer (1997) 75(10), 1439-1446 ? […] The present study was carried out in well-established human ovarian cancer xenografts OVCAR-3, A2780 and FMa grown subcutaneously in the nude mouse. […] Its anti-tumour activity is assumed to result from the formation of platinum (Pt)-DNA adducts. The clinical use of carboplatin is limited by myelosuppression at a dose in the steep part of the dose-response curve. Therefore, much effort has been put into reducing the toxic side-effects to allow the administration of higher doses of carboplatin. Amifostine [Ethyol, WR-2721, S-2-(3-aminopropylamino)- ethylphosphorothioic acid], initially developed as a radioprotector, is approved for use as a protector against chemotherapy-induced toxicities in the USA and Europe (van der Vijgh and Peters, 1994). […] Such an approach is incorporated into clinical trials in which amifostine is given three times, just before and 2 and 4 h after carboplatin (Betticher et al, 1995; Vermorken et al, 1995). To date, clinical data are available for only a small number of patients. […] Furthermore, we determined the influence of a single dose and multiple doses of amifostine on the body temperature in nude mice.

[7] = parameters: method as in Treskes et al, 1994; conditions: given on days 0 and 7; allowing 10% weight loss within 2 weeks after the first injection; ref Treskes et al, 1994; cited from earlier work
[8] = OVCAR-3, day 28, Table 1, carboplatin 60 mg kg-1 i.v. and/or amifostine 3 x 200 mg kg-1 i.p.
[9] = OVCAR-3, day 35, Table 1, carboplatin 60 mg kg-1 i.v. and/or amifostine 3 x 200 mg kg-1 i.p.
[10] = day 29, Table 1, carboplatin 60 mg kg-1 i.v. and/or amifostine 3 x 200 mg kg-1 i.p.
[11] = day 36, Table 1, carboplatin 60 mg kg-1 i.v. and/or amifostine 3 x 200 mg kg-1 i.p.
[12] = A2780-bearing mice, Table 1, carboplatin 60 mg kg-1 i.v. and/or amifostine 3 x 200 mg kg-1 i.p.
[13] = FMa-bearing mice, Table 1, carboplatin 60 mg kg-1 i.v. and/or amifostine 3 x 200 mg kg-1 i.p.
[14] = OVCAR-3-bearing mice, Table 1, carboplatin 60 mg kg-1 i.v. and/or amifostine 3 x 200 mg kg-1 i.p.

Row | Compound | Growth inhibition (%) (Day) [1, 8] | Growth inhibition (%) (Day) [1, 9] | Anti-tumour activity (in words) [1] | Growth inhibition (%) (Day) ([2]; A2780, day 11) | Growth inhibition (%) (Day) ([2]; A2780, day 14) | Anti-tumour activity (in words) [2] | Anti-tumour activity (in words) [3] | Growth inhibition (%) (Day) [3, 10] | Growth inhibition (%) (Day) [3, 11] | Toxic deaths [4, 12] | Toxic deaths [4, 13] | Toxic deaths [4, 14] | other results
1 | NCCCNCCSP(=O)(O)O [amifostine, S-2-(3-aminopropylamino)-ethylphosphorothioic acid] | 0.0% | 0.0% | did not have any anti-tumour activity | 31.1% | 17.4% | did not have any anti-tumour activity | did not have any anti-tumour activity | 20.3% | 21.5% | 2/6 | 0/6 | 1/6 | –
2 | N.N.O=C([O-])C1(C(=O)[O-])CCC1.[Pt+2] [carboplatin, cis-diammine( 1,1 -cyclobutanedicarboxylato)plat- inum(II)] | 93.2% | 89.0% | active | 28.8% | 14.0% | no significant influence | active | 90.3% | 89.3% | 0/5 | 0/6 | 0/5 | Growth inhibition (%) (Day) ([1]; OVCAR-3, day 20, Table 2, carboplatin 60 mg kg-1 i.v. alone or + amifostine 1 x 200 mg kg-1 i.p.): 88.5%; Growth inhibition (%) (Day) ([1]; OVCAR-3, day 27, Table 2, carboplatin 60 mg kg-1 i.v. alone or + amifostine 1 x 200 mg kg-1 i.p.): 92.4%; Growth inhibition (%) (Day) ([3]; day 21, Table 2, carboplatin 60 mg kg-1 i.v. alone or + amifostine 1 x 200 mg kg-1 i.p.): 79.2%; Growth inhibition (%) (Day) ([3]; day 28, Table 2, carboplatin 60 mg kg-1 i.v. alone or + amifostine 1 x 200 mg kg-1 i.p.): 76.0%; Toxic deaths ([4]; FMa-bearing mice, Table 2, carboplatin 60 mg kg-1 i.v. alone or + amifostine 1 x 200 mg kg-1 i.p.): 0/6; Toxic deaths ([4]; OVCAR-3-bearing mice, Table 2, carboplatin 60 mg kg-1 i.v. alone or + amifostine 1 x 200 mg kg-1 i.p.): 0/6; AUC of total platinum in OVCAR-3 tumour tissue [5]: 146.8 nmol g(-1) x h; AUC of total platinum in kidney [5]: 368.3 nmol g(-1) x h; AUC of total platinum in liver [5]: 236.4 nmol g(-1) x h; AUC of total platinum in plasma ultrafiltrate [5]: 18.2 microM x h; Ratio AUC Pt-DNA adducts/AUC total platinum, kidney (DNA): 0.51; Ratio AUC Pt-DNA adducts/AUC total platinum, liver (DNA): 0.23; Ratio AUC Pt-DNA adducts/AUC total platinum, tumour tissue (DNA): 0.56; Body temperature (not decreased) [6]: 37 0C; Maximum tolerated dose (MTD) of carboplatin [7]: 60 mg kg-'
